Data published in ChEMBL document CHEMBL1149137, “Synthesis, screening, and molecular modeling of new potent and selective antagonists at the alpha 1d adrenergic receptor” (J Med Chem, 2004).

Key:
[1] = target: T1, 5-hydroxytryptamine receptor 1A (Homo sapiens, UniProt P08908); experiment: Binding affinity to human 5-hydroxytryptamine 1A receptor was measured using [3H]-8-hydroxy-2-(di-n-propylamine) tetraline [3H]8-OH-DPAT) as radioligand
T1 sequence (P08908 whole entry): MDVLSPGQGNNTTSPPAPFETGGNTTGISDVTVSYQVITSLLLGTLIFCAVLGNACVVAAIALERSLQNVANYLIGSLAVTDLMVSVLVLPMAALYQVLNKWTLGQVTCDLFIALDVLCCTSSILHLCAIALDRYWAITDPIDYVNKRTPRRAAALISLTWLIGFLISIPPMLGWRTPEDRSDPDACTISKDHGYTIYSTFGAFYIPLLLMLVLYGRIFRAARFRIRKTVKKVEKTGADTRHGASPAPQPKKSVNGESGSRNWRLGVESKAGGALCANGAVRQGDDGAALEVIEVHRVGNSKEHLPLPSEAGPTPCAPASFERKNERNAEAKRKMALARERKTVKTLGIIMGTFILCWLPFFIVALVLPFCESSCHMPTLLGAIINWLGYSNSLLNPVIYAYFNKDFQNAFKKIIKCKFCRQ

[2] = target: Alpha-1D adrenergic receptor (Homo sapiens) (UniProt P25100); experiment: Binding affinity to the adrenergic receptor alpha-1D of cloned human receptor
[3] = target: Alpha-1A adrenergic receptor (Homo sapiens) (UniProt P35348); experiment: In vitro binding affinity towards alpha-1A adrenergic receptor through displacement of [3H]prazosin in cloned human receptor.

| SMILES | Ki [1] [µM] | Ki [2] [µM] | Ki [3] [µM] |
| --- | --- | --- | --- |
| CC(C)c1ccc(N2CCN(CCN3C(=O)CC4(CCCC4)CC3=O)CC2)cc1 | > 1 | > 1 | – |
| O=C1CC2(CCCC2)CC(=O)N1CCN1CCCN(c2ccccc2Cl)CC1 | 0.00034 | 0.00138 | 0.295 |
| COc1ccccc1N1CCN(CCN2CCC3(CCCC3)CC2=O)CC1 | 0.00233 | 0.00037 | 0.0544 |
| CC1CN(c2ccccc2[N+](=O)[O-])CCN1CCN1C(=O)CC2(CCCC2)CC1=O (stereo unspecified) | 0.0862 | 0.597 | – |
| O=C1CC2(CCCC2)CC(=O)N1CCN1CCC(c2ccccc2Cl)CC1 | 0.00525 | 0.00111 | 0.00201 |
| O=C1CC2(CCCC2)CC(=O)N1CCN1CCN(c2cccc(Cl)c2)CC1 | 0.00109 | 0.00202 | > 1 |
| O=C1CC2(CCCC2)CC(=O)N1CCN1CCC(c2cc(Cl)ccc2Cl)CC1 | – | 0.0015 | 0.119 |
| O=C1CC2(CCCC2)CC(=O)N1CCN1CCN(c2ccccc2F)CC1 | – | – | > 1 |
| O=C1CC2(CCCCC2)CC(=O)N1CCN1CCN(c2cc(Cl)ccc2Cl)CC1 | – | 0.00221 | 0.331 |
| COc1ccccc1N1CCN(CCN2C(=O)CC3(CCNCC3)CC2=O)CC1 | > 1 | 0.0717 | 0.631 |
| O=C1CC2(CCCC2)CC(=O)N1CCN1CCN(c2cc(Br)ccc2Br)CC1 | – | 0.00372 | 0.114 |
| CC(CN1CCN(c2cc(Cl)ccc2Cl)CC1)N1C(=O)CC2(CCCC2)CC1=O (stereo unspecified) | – | 0.00041 | 0.187 |
| O=C1CC2(CCCC2)CC(=O)N1CCN1CCN(c2ccccc2O)CC1 | 0.00136 | 0.0161 | – |
| COc1ccc(N2CCN(CCN3C(=O)CC4(CCCC4)CC3=O)CC2)cc1 | 0.0546 | 0.0378 | – |
| CN(CCNc1cc(Cl)ccc1Cl)CCN1C(=O)CC2(CCCC2)CC1=O | 0.717 | 0.674 | – |
| O=C1CC2(CCCC2)CC(=O)N1CCN1CCN(c2cc([N+](=O)[O-])ccc2Cl)CC1 | > 1 | 0.0182 | 0.044 |
| COc1ccccc1N1CCN(CCN2C(=O)CC3(CCN(Cc4ccccc4)CC3)CC2=O)CC1 | > 1 | 0.0351 | 0.294 |
| O=C1CC2(CCCC2)CC(=O)N1CCN1CCN(c2cc(F)ccc2Cl)CC1 | – | 0.00018 | 0.108 |
| O=C1CC2(CCCC2)CC(=O)N1CCCCN1CCN(c2cc(Cl)ccc2Cl)CC1 | 0.0261 | 0.00067 | 0.00181 |
| O=C1CC2(CCCC2)CC(=O)N1CCN1CCN(c2cc(C(F)(F)F)ccc2Cl)CC1 | > 1 | 0.0391 | – |
| COc1ccccc1OCCN(C)CCN1C(=O)CC2(CCCC2)CC1=O | 0.259 | 0.0182 | > 1 |
| O=C1CC2(CCCC2)CC(=O)N1CCN1CCN(c2ccc(Cl)cc2Cl)CC1 | 0.0121 | 0.00389 | – |
| O=C1CC2(CCCC2)CC(=O)N1CCN1CCN(c2ccc(F)cc2)CC1 | 0.153 | 0.0241 | – |
| O=C1CC2(CCCC2)CC(=O)N1CCNCCOc1cc(Cl)ccc1Cl | > 1 | 0.207 | – |
| O=C1CC2(CCCC2)CC(=O)N1CCN1CCN(c2cccc(Cl)c2Cl)CC1 | 0.00337 | 0.0127 | – |

| SMILES | Ki [1] [µM] | Ki [2] [µM] | Ki [3] [µM] |
| --- | --- | --- | --- |
| CC1CN(c2ccccc2[N+](=O)[O-])CC(C)N1CCN1C(=O)CC2(CCCC2)CC1=O (stereo unspecified) | 0.399 | > 1 | – |
| O=C1CC2(CCCC2)CC(=O)N1CCN1CCN(c2cc(C(F)(F)F)ccc2F)CC1 | – | 0.00756 | > 1 |
| O=C1CC2(CCCC2)CC(=O)N1CCN1CCN(c2ccccc2Br)CC1 | 0.00129 | 0.0016 | 0.376 |
| COc1ccccc1N1CCN(CCN2C=CC3(CCCC3)CC2=O)CC1 | 0.00384 | 0.00315 | 0.0292 |
| Cc1ccc(N2CCN(CCN3C(=O)CC4(CCCC4)CC3=O)CC2)c(C)c1 | 2.36 | 0.0733 | – |
| O=C1CC2(CCCC2)CC(=O)N1CCN1CCN(c2cc(I)ccc2Cl)CC1 | – | 0.0153 | 0.479 |
| O=C1CC2(CCCC2)CC(=O)N1CCN1CCN(c2ccccc2[N+](=O)[O-])CC1 | 0.0113 | 0.0153 | – |
| O=C1CC2(CCC2)CC(=O)N1CCN1CCN(c2cc(Cl)ccc2Cl)CC1 | – | 0.00265 | 0.12 |
| O=C1CC2(CCCC2)CC(=O)N1CCN1CCN(c2cc(F)ccc2F)CC1 | 0.061 | 0.00014 | – |
| Cc1ccc(F)c(N2CCN(CCN3C(=O)CC4(CCCC4)CC3=O)CC2)c1 | – | 0.00238 | > 1 |
| CN(CCOc1ccccc1Cl)CCN1C(=O)CC2(CCCC2)CC1=O | 0.125 | 0.0148 | – |
| O=C1CC2(CCCC2)CC(=O)N1CCN1CCN(c2ccccc2)CC1 | 0.0357 | 0.00432 | 3.35 |
| O=C1CC2(CCCC2)CC(=O)N1CCN1CCN(c2ccccc2C(F)(F)F)CC1 | 0.0263 | 0.00525 | – |
| Cc1ccccc1N1CCN(CCN2C(=O)CC3(CCCC3)CC2=O)CC1 | 0.0254 | 0.00216 | 0.584 |
| O=C1CC2(CCCC2)CC(=O)N1CCNCCOc1ccccc1Cl | > 1 | > 1 | – |
| CN(C(=O)CNCCN1C(=O)CC2(CCCC2)CC1=O)c1cc(Cl)ccc1Cl | > 1 | > 1 | – |
| O=C1CC2(CCCC2)C(=O)N1CCN1CCN(c2cc(Cl)ccc2Cl)CC1 | – | 0.00311 | 0.0683 |
| O=C1C=CC(=O)N1CCN1CCN(c2cc(Cl)ccc2Cl)CC1 | > 1 | 0.126 | – |
| COc1ccccc1OCCNCCN1C(=O)CC2(CCCC2)CC1=O | 0.526 | > 1 | – |
| N#Cc1ccccc1N1CCN(CCN2C(=O)CC3(CCCC3)CC2=O)CC1 | 0.00537 | 0.00093 | 0.214 |
| O=C1CC2(CCCC2)CC(=O)N1CCN1CCC(c2ccccc2)CC1 | 0.0259 | 0.00366 | > 1 |
| CN(CCN1C(=O)CC2(CCCC2)CC1=O)CC(=O)Nc1cc(Cl)ccc1Cl | > 10 | > 1 | – |
| O=C1CC2(CCCCC2)CC(=O)N1CCN1CCN(c2ccccc2Cl)CC1 | 0.02 | 0.00288 | 0.422 |
| O=C1CC2(CCCC2)CC(=O)N1CCN1CCN(c2ccc(Cl)cc2)CC1 | 0.599 | 0.0359 | – |
| CCOC(=O)c1ccccc1N1CCN(CCN2C(=O)CC3(CCCC3)CC2=O)CC1 | 0.00407 | 0.029 | – |

| SMILES | Ki [1] [µM] | Ki [2] [µM] | Ki [3] [µM] |
| --- | --- | --- | --- |
| CC(C)Oc1ccccc1N1CCN(CCN2C(=O)CC3(CCCC3)CC2=O)CC1 | 0.00054 | 0.0029 | 0.00354 |
| O=C1CC2(CCCC2)CC(=O)N1CCN1CCN(c2cccc(C(F)(F)F)c2)CC1 | 0.00822 | 0.153 | – |
| CN(CCOc1cc(Cl)ccc1Cl)CCN1C(=O)CC2(CCCC2)CC1=O | > 1 | 0.0191 | 0.414 |
| N#Cc1ccc(Cl)cc1N1CCN(CCN2C(=O)CC3(CCCC3)CC2=O)CC1 | – | 0.0002 | 0.503 |
| CN(CCN1C(=O)CC2(CCCC2)CC1=O)CCN(C)c1cc(Cl)ccc1Cl | – | 0.0164 | 0.786 |
| O=C1CC2(CCCC2)CC(=O)N1CCCN1CCN(c2cc(Cl)ccc2Cl)CC1 | 0.401 | 0.00172 | 0.00285 |
| Clc1ccccc1N1CCN(CCN2CCC3(CCCC3)CC2)CC1 | 0.0854 | 0.00874 | > 1 |
| CN(CCCN(C)c1cc(Cl)ccc1Cl)CCN1C(=O)CC2(CCCC2)CC1=O | > 1 | 0.11 | – |
| COc1ccccc1N1CCN(CCN2C(=O)CC3(CCN(C(C)=O)CC3)CC2=O)CC1 | > 0.01 | 0.429 | 1.52 |
| O=C1CC2(CCCC2)CC(=O)N1CCN1CCN(c2ccccc2C2CC2)CC1 | 0.0012 | 0.00134 | 0.0109 |
| O=C1CC2(CCCC2)CC(=O)N1CCN1CCN(c2ccccc2Cl)CC1 | 0.00424 | 0.00083 | 0.552 |
| O=C1CC2(CCCC2)CCN1CCN1CCN(c2ccccc2Cl)CC1 | 0.00106 | 0.00054 | 0.0875 |
| O=C1CC2(CCCC2)CC(=O)N1CCN1CCN(c2cc([N+](=O)[O-])ccc2F)CC1 | > 1 | 0.0463 | – |
| CN(CCN1C(=O)CC2(CCCC2)CC1=O)CC(=O)N(C)c1cc(Cl)ccc1Cl | > 1 | > 1 | – |
| CC1(C)CC(=O)N(CCN2CCN(c3ccccc3Cl)CC2)C(=O)C1 | 0.0658 | 0.0234 | – |
| Cc1ccc(Cl)cc1N1CCN(CCN2C(=O)CC3(CCCC3)CC2=O)CC1 | 0.135 | 0.00037 | 0.19 |
| Cc1ccc(C)c(N2CCN(CCN3C(=O)CC4(CCCC4)CC3=O)CC2)c1 | – | 0.0101 | 0.119 |
| COc1cccc(N2CCN(CCN3C(=O)CC4(CCCC4)CC3=O)CC2)c1 | 0.0134 | 0.0543 | > 1 |
| CN(CCCOc1cc(Cl)ccc1Cl)CCN1C(=O)CC2(CCCC2)CC1=O | 0.452 | 0.11 | – |
| O=C1CC2(CCCC2)CC(=O)N1CCN1CCN(c2ccc(Cl)c(Cl)c2)CC1 | 0.0198 | 0.00538 | – |
| O=C1CC2(CCCC2)CC(=O)N1CCN1CCN(c2c(Cl)cccc2Cl)CC1 | 0.234 | 0.0299 | – |
| O=C1CC2(C=CN1CCN1CCN(c3ccccc3Cl)CC1)CCCC2 | 0.00938 | 0.00084 | 0.0539 |
| O=C1CCC(=O)N1CCN1CCN(c2cc(Cl)ccc2Cl)CC1 | – | 0.00778 | – |
